Test results reported in ChEMBL document CHEMBL1201862, “PubChem BioAssay data set” (2004).
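Where inhibition never reached the appropriate level, the endpoint shown equals the highest concentration tested. Otherwise, values were interpolated linearly from a five-concentration, 48-hour dose response in 96-well plates. GI50 is the concentration that inhibits growth by half.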 Activity calls are given as the source filed them. Cut-off read from the data, not from the text of the source: active = GI50 up to about 1.1 µM and inactive = higher.

Legend:
Experiment in all cases: NCI anticancer screen, dose series, 48 h
786-0 = test system: 786-0
COLO 205 = test system: COLO 205
Hs-578T = test system: Hs-578T
K562 = test system: K562
MCF7 = test system: MCF7
MDA-MB-435 = test system: MDA-MB-435
MOLT-4 = test system: MOLT-4
Malme-3M = test system: Malme-3M
OVCAR-3 = test system: OVCAR-3
PC-3 = test system: PC-3
SF-295 = test system: SF-295
SF-539 = test system: SF-539
SK-MEL-28 = test system: SK-MEL-28
SK-MEL-2 = test system: SK-MEL-2
SN12C = test system: SN12C
SR = test system: SR
SW-620 = test system: SW-620
TK-10 = test system: TK-10
U-251 = test system: U-251
UO-31 = test system: UO-31

| Structure (SMILES) | GI50 (786-0) | GI50 (COLO 205) | GI50 (Hs-578T) | GI50 (K562) | GI50 (MCF7) | GI50 (MDA-MB-435) | GI50 (MOLT-4) | GI50 (Malme-3M) | GI50 (OVCAR-3) | GI50 (PC-3) | GI50 (SF-295) | GI50 (SF-539) | GI50 (SK-MEL-28) | GI50 (SK-MEL-2) | GI50 (SN12C) | GI50 (SR) | GI50 (SW-620) | GI50 (TK-10) | GI50 (U-251) | GI50 (UO-31) |
| --- | --- | --- | --- | --- | --- | --- | --- | --- | --- | --- | --- | --- | --- | --- | --- | --- | --- | --- | --- | --- |
| CC1(C)CC(=O)c2[nH]c3ccccc3c2CC(=O)NCCc2cn1cn2 | 18.6 µM (inactive) | > 100 µM (inactive) | 33.5 µM (inactive) | > 100 µM (inactive) | > 100 µM (inactive) | > 100 µM (inactive) | > 100 µM (inactive) | > 100 µM (inactive) | > 100 µM (inactive) | > 100 µM (inactive) | 82.8 µM (inactive) | > 100 µM (inactive) | > 100 µM (inactive) | > 100 µM (inactive) | > 100 µM (inactive) | > 100 µM (inactive) | > 100 µM (inactive) | > 100 µM (inactive) | 56.6 µM (inactive) | > 100 µM (inactive) |
| CC(=O)NC1C(OCc2ccccc2)OC(CO)C(O)C1OC(C)C(=O)NC(C(=O)N[C@@H](CCC(=O)NCCNCCNc1c2ccccc2nc2cccc([N+](=O)[O-])c12)C(N)=O)C(C)C (stereo not given in full) | 22.4 µM (inactive) | 20.1 µM (inactive) | > 100 µM (inactive) | 0.0158 µM (active) | 6.7 µM (inactive) | 14.1 µM (inactive) | 23.6 µM (inactive) | 36.2 µM (inactive) | 25.8 µM (inactive) | 28.4 µM (inactive) | 48.5 µM (inactive) | 14.9 µM (inactive) | 41.4 µM (inactive) | 20 µM (inactive) | 20.9 µM (inactive) | 1.78 µM (inactive) | 13.2 µM (inactive) | 37.8 µM (inactive) | 65.8 µM (inactive) | 21.7 µM (inactive) |
| COC(=O)C1=C(C(=O)OC)C2(/N=C(\Nc3ccccc3)c3ccccc3)N(c3ccc(OC)cc3)CC(c3ccccc3)N2O1 (stereo not given) | > 100 µM (inactive) | > 100 µM (inactive) | > 100 µM (inactive) | > 100 µM (inactive) | > 100 µM (inactive) | > 100 µM (inactive) | > 100 µM (inactive) | > 100 µM (inactive) | > 100 µM (inactive) | > 100 µM (inactive) | > 100 µM (inactive) | > 100 µM (inactive) | > 100 µM (inactive) | > 100 µM (inactive) | > 100 µM (inactive) | > 100 µM (inactive) | > 100 µM (inactive) | > 100 µM (inactive) | > 100 µM (inactive) | > 100 µM (inactive) |
| COC(=O)c1ccc(/C=N/c2cc(C)nn2-c2ccccc2)cc1 | 67 µM (inactive) | 13.5 µM (inactive) | 91.2 µM (inactive) | 4.5 µM (inactive) | 15.1 µM (inactive) | 8.65 µM (inactive) | 8.47 µM (inactive) | 70.8 µM (inactive) | 12 µM (inactive) | 40.9 µM (inactive) | 35.8 µM (inactive) | > 100 µM (inactive) | 82.2 µM (inactive) | 49 µM (inactive) | 48.3 µM (inactive) | 19.2 µM (inactive) | 20.7 µM (inactive) | 2.12 µM (inactive) | 20.6 µM (inactive) | > 100 µM (inactive) |
| Cc1cccc(/C=N/NC(=S)NC2CCCCC2)n1 | 20 µM (inactive) | 8.85 µM (inactive) | 31.1 µM (inactive) | 4.61 µM (inactive) | 11.4 µM (inactive) | 33.7 µM (inactive) | 2.26 µM (inactive) | 16.2 µM (inactive) | 3.7 µM (inactive) | 6.73 µM (inactive) | 29 µM (inactive) | 27.7 µM (inactive) | 46.7 µM (inactive) | 24.1 µM (inactive) | 27.4 µM (inactive) | 4.76 µM (inactive) | 9.25 µM (inactive) | 58.5 µM (inactive) | 20.5 µM (inactive) | 18.7 µM (inactive) |
| N#CC1CCCC2SC(F)(F)C(F)(F)C12 (stereo not given) | > 100 µM (inactive) | > 100 µM (inactive) | > 100 µM (inactive) | 30.5 µM (inactive) | > 100 µM (inactive) | > 100 µM (inactive) | 26.6 µM (inactive) | > 100 µM (inactive) | > 100 µM (inactive) | > 100 µM (inactive) | > 100 µM (inactive) | > 100 µM (inactive) | > 100 µM (inactive) | > 100 µM (inactive) | > 100 µM (inactive) | 23.8 µM (inactive) | > 100 µM (inactive) | > 100 µM (inactive) | > 100 µM (inactive) | > 100 µM (inactive) |
| O=C(/C=C/c1ccc(O)c(O)c1)OCCOC(=O)/C=C/c1ccc(O)c(O)c1 | 42.3 µM (inactive) | 19.5 µM (inactive) | 39.4 µM (inactive) | 24.8 µM (inactive) | 34.5 µM (inactive) | 31.3 µM (inactive) | 20.9 µM (inactive) | 42.1 µM (inactive) | 19.3 µM (inactive) | 32 µM (inactive) | 21.5 µM (inactive) | 22.4 µM (inactive) | 36.4 µM (inactive) | 22.1 µM (inactive) | 25.9 µM (inactive) | 22.6 µM (inactive) | 38.1 µM (inactive) | 41.5 µM (inactive) | 25.3 µM (inactive) | 23.2 µM (inactive) |
